In patent US4061760A, “Method for using 3-substituted-5-phenyl-5-pyridyl hydantoins as antiarrhythmic agents” (priority 1976, dated 1977):

Key:
[1] = cited from earlier work; for side effects / toxicity (in words): background
in vivo [2] = settings: ip
Text: LD50 data were obtained by standard procedures known to the art.

[3] = test system: ventricular rate and rhythm; test: animal or person; type: in vivo; settings: for ED50: Mus musculus, ip, 10 min, read-out: ED50 (95% CL)
Protocol: (§1) The test compounds were administered in varying intraperitoneal doses to groups consisting of 5 mice. Ten minutes after administration of a given dose of a compound, a mouse was transferred to a covered 300 ml glass beaker that contained a wad of cotton saturated with about 20 ml of chloroform. The animal was observed closely and removed from the beaker immediately after respiratory arrest. The heart was quickly exposed by making an incision through the abdomen, diaphragm, thorax and pericardium for visual inspection of ventricular rate and rhythm. Ventricular contractions were counted for 30 seconds. According to the procedure reported by Lawson, animals with ventricular rate not exceeding 100 contractions during the 30 second observation period were considered protected.

in vivo [4] = type: in vivo; settings: mouse, in vivo, ip; LD50 and ED50 in mg/kg, i.p.; read-out: Therapeutic index
Protocol: as §1

[5] = Casagrande, quoted; cited from earlier work

| Structure (SMILES) | LD50 (in vivo [2]) [mg/kg] | ED50 [3] [mg/kg] | selectivity ratio (in vivo [4]) | other results |
| --- | --- | --- | --- | --- |
| O=C1NC(=O)C(c2ccccc2)(c2ccccc2)N1 [DPH, 5,5-diphenyl-2,4-imidazolidinedione] |  |  |  | side effects / toxicity (in words) [1]: dizziness, nausea, emesis, nystimus, and ataxia; side effects at large doses (in words) ([1]; large doses): atrio-ventricular blockage, bradycardia, or even cardiac arrest |
| O=C1NC(c2ccccc2)(c2ccccn2)C(=O)N1CCCN1CCC(c2ccccc2)CC1 (stereo not shown) [Example 1, 3-[3-(4-phenyl-1-piperidyl)propyl]-5-phenyl-5-(2-pyridyl)hydantoin] | 136 | 15.3 | 9 |  |
| O=C1NC(c2ccccc2)(c2ccccn2)C(=O)N1CCCN1CCC(O)(c2ccccc2)CC1 (stereo not shown) [Example 2, 3-[3-(4-hydroxy-4-phenyl-1-piperidyl)propyl]-5-phenyl-5-(2-pyridyl)hydantoin] | 65 | 19.2 | 3.4 |  |
| O=C1NC(c2ccccc2)(c2cccnc2)C(=O)N1CCCN1CCC(c2ccccc2)CC1 (stereo not shown) [Example 4, 3-[3-(4-phenyl-1-piperidyl)propyl]-5-phenyl-5-(3-pyridyl)-hydantoin] | 156 | 31 | 5 |  |
| O=C1NC(c2ccccc2)(c2ccncc2)C(=O)N1CCCN1CCC(c2ccccc2)CC1 (stereo not shown) [Example 5, 3-[3-(4-phenyl-1-piperidyl)propyl]-5-phenyl-5-(4-pyridyl)hydantoin] | 61 | 28 | 2.1 |  |
| C=C[C@H]1C[N@@]2CC[C@H]1C[C@@H]2[C@@H](O)c1ccnc2ccc(OC)cc12 [I, quinidine] |  |  |  | side effects / toxicity (in words) [1]: relatively toxic |
| O=C1NC(=O)C(c2ccccc2)(c2ccccn2)N1 (stereo not shown) [V, 5-phenyl-5-(2-pyridyl)hydantoin] | 186 | 160 | 1.16 |  |
| O=C1NC(=O)C(c2ccccc2)(c2cccnc2)N1 (stereo not shown) [VI, 5-phenyl-5-(3-pyridyl)hydantoin] |  | > 310 |  | mice protected ([3]; at 310 mg/kg, i.p.): 2 of 5 |
| O=C1NC(=O)C(c2ccccc2)(c2ccncc2)N1 (stereo not shown) [VII, 5-phenyl-5-(4-pyridyl)hydantoin] | 240 | 205 | 1.17 |  |
| CN(C)CCN1C(=O)NC(c2ccccc2)(c2cccnc2)C1=O (stereo not drawn) [compound XXV, 3-(2-dimethylamino-ethyl)-5-phenyl-5β-pyridyl-hydantoin] |  |  |  | therapeutic index clearly superior to that of quinidine (in words) [5]: had not been fulfilled |
| CC(CN(C)C)CN1C(=O)NC(c2ccccc2)(c2cccnc2)C1=O (stereo not drawn) [compound XXX, 3-(2-methyl-3-dimethylamino-propyl)-5-phenyl-5β-pyridyl-hydantoin] |  |  |  | therapeutic index clearly superior to that of quinidine (in words) [5]: had not been fulfilled |
